{
  "source": "patent US7888389B2",
  "about": "(The Regents of the University of Michigan, priority 2002, dated 2011)",
  "key": {"[1]": {"conditions": "cited from earlier work"}, "[2]": {"conditions": "in vivo; cited from earlier work"}, "[3]": {"conditions": "cited from earlier work", "remark": "listed apart in the source"}, "[4]": {"conditions": "human, in vivo; cited from earlier work"}, "breast cancer cells": {"test_system": "breast cancer cells", "assay": "Human breast cancer xenograft growth in athymic nude mice", "format": "in vivo", "method": "FIG. 5. […] 10^6 breast cancer cells were injected in the mammary fat pad of 4 groups of athymic, nude mice (5 mice per group). Control mice received no treatment.\nIn this study, 10^6 breast cancer cells were injected in the mammary fat pad of 4 groups of athymic, nude mice (5 mice per group). Control mice received no treatment."}, "copper-albumin": {"biological_target": "copper-albumin (Homo sapiens, UniProt P02768)", "sequence (P02768 25-609)": "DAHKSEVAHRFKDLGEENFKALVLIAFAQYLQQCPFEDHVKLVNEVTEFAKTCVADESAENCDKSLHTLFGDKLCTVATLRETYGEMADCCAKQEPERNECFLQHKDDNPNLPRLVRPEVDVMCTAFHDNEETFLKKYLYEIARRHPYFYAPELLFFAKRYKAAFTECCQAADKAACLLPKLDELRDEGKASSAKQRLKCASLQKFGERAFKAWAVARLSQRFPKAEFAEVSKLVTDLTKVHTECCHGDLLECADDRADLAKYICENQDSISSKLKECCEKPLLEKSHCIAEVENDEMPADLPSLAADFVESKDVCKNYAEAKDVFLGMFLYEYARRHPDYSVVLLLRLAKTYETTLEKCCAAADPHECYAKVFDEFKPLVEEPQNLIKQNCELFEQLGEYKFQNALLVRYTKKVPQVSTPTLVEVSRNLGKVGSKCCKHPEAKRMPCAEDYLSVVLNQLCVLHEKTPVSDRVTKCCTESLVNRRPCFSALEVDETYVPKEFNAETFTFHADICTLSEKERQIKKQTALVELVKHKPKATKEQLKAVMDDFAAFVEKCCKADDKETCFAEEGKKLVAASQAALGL", "conditions": "in vitro"}, "[5]": {"conditions": "therapeutic dose 1,000-2,000 mg/day"}},
  "note": "“Also recorded” adds a separate entry of the source.",
  "data": [
    {"compound": "CC(=O)[O-].CC(=O)[O-].[Zn+2]", "note": "[zinc, zinc acetate]", "values": [
      {"measurement": "toxicity", "setting": "[1]; 150 mg daily, 200 Wilson's disease patients", "result": "no toxicity at all"},
      {"measurement": "copper balance induced", "setting": "[1]; at the two week point", "result": "−0.35", "unit": "mg daily"},
      {"measurement": "time to bring urine copper and nonceruloplasmin plasma copper to subtoxic levels", "setting": "[1]; in vivo", "result": "as long as six months"},
      {"measurement": "time to intestinal metallothionein induction and negative copper balance", "setting": "[1]; in vivo", "result": "approximately two weeks"}
    ]},
    {"compound": "CC(C)(S)[C@@H](N)C(=O)O", "note": "[penicillamine]", "values": [
      {"measurement": "initial hypersensitivity syndrome", "setting": "[2]", "result": "about a quarter to a third of patients"}
    ]},
    {"compound": "NCCNCCNCCN", "note": "[trientine]", "values": [
      {"measurement": "patients with proteinuria", "setting": "[3]; after several weeks of use", "result": "about 20%"},
      {"measurement": "cupruresis after the first few weeks of therapy", "setting": "[3]; [5]", "result": "2 to 3", "unit": "mg"},
      {"measurement": "initial cupruresis", "setting": "[3]; [5]", "result": "4 to 5", "unit": "mg"}
    ]},
    {"compound": "NC(=O)c1nnn(Cc2cc(Cl)c(C(=O)c3ccc(Cl)cc3)c(Cl)c2)c1N", "note": "[CAI, carboxyamidotriazole]", "values": [
      {"measurement": "disease stabilization in cancer patients having progressive disease before treatment", "setting": "[4]", "result": 49, "unit": "%"}
    ]},
    {"compound": "tetrapropylammonium tetrathiomolybdate [TP-TM]", "values": [
      {"measurement": "tumor growth curves versus control animals", "setting": "breast cancer cells; TM 1 mg/day, TP-TM 1 mg/day and 1.5 mg/day, p<0.01 vs control", "result": "effectively inhibiting tumor growth"},
      {"measurement": "TP-TM tumor growth inhibition compared with TM", "setting": "breast cancer cells; TP-TM 1 and 1.5 mg/day vs AmmTM 1 mg/day", "result": "indistinguishable from that of AmmTM; also recorded: at least as effective as TM; also recorded: statistically indistinguishable from the TM curves"},
      {"measurement": "copper-albumin-TM tripartite binding", "setting": "copper-albumin", "result": "show the standard copper-albumin-TM tripartite binding"}
    ]}
  ]
}
